Laboratory results reported in ChEMBL document CHEMBL1133834, “Design and synthesis of Pfmrk inhibitors as potential antimalarial agents” (Bioorg Med Chem Lett, 2001).

The compounds below were run against T1, Protein kinase Pfmrk (Plasmodium falciparum, UniProt P90584) (assay: Inhibition of Plasmodium falciparum cyclin dependent protein kinase (No inhibition)).
T1 sequence (P90584 whole entry): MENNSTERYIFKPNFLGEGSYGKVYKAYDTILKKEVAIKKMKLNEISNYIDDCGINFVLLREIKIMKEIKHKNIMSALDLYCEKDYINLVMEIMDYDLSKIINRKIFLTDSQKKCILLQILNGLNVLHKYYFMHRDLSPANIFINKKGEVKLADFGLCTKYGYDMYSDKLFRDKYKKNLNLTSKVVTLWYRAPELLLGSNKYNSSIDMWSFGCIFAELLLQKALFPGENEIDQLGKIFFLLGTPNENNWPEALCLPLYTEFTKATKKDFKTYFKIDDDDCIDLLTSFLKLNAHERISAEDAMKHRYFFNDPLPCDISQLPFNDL

| IC50 | Compound |
| --- | --- |
| Not Active | Oc1nc2ccccc2c2oc3ccccc3c12 |
| Not Active | Oc1[nH]c2ccccc2c2nc3ccccc3c1-2 |

These compounds were tested against T1, Protein kinase Pfmrk (assay: Inhibition of Plasmodium falciparum cyclin dependent protein kinase (Pfmrk)).

| Compound | IC50 [µM] |
| --- | --- |
| Oc1c2ccccc2nc2oc3ccccc3c12 | < 371 |
| OCCOc1cccc(-c2cc3ccccc3nc2O)c1 | 18 |

Second part, the compound after the results:

| IC50 [µM] | Compound |
| --- | --- |
| 539 | Oc1ccc2nc(O)c3c4ccccc4oc3c2c1 |
| 187 | Oc1ccc2nc3oc4ccccc4c3c(O)c2c1 |
| 102 | O=C(O)COc1cccc(-c2cc3ccccc3nc2O)c1 |
